From US8273773B2 (priority 2008, dated 2012) come the findings set out here.
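Note: recombinant His-tagged enzyme from E. coli, radiolabeled nucleotide incorporation into acid-insoluble RNA read by scintillation after filtration, no-enzyme background subtracted, activity relative to positive control.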

In the first assay the target is T1, HCV polymerase (NS5B570n-Con1) (Hepatitis C virus genotype 1b, UniProt Q9WMX2).
T1 construct: contains a 21 amino acid deletion at the C-terminus relative to the full-length HCV polymerase; 6-histidine (N); made in house; host or cells: E. coli strain BL21(DE) pLysS (pET17b)
As to the kind of experiment: biochemical. More on the design: species or system HCV Con1 strain. The settings on record: IC50 HCV NS5B RNA Polymerase Assay (values with asterisk), values with asterisk: cIRES RNA template, 3 nM NS5B570n-Con1.
Usually IC50 stands for the midpoint of a concentration-inhibition curve. Turning to `COC(=O)c1cc(NS(C)(=O)=O)ccc1/C=C/c1cc(-c2cc(F)c[nH]c2=O)cc(C(C)(C)C)c1OC` [I-186], the IC50 came to 4 nM.
`COC(=O)c1cc(NS(C)(=O)=O)ccc1CCc1cc(-c2cc(F)c[nH]c2=O)cc(C(C)(C)C)c1OC` [I-189]: the IC50 was found to be 1 nM.
For `COc1c(CCc2ccc(NS(C)(=O)=O)cc2C(=O)O)cc(-c2cc(F)c[nH]c2=O)cc1C(C)(C)C` [I-190, 2-{2-[3-tert-Butyl-5-(5-fluoro-2-oxo-1,2-dihydro-pyridin-3-yl)-2-methoxy-phenyl]-ethyl}-5-methanesulfonylamino-benzoic acid], the midpoint of inhibition, the IC50, lay at 1 nM.
Same read-out and setting: for `COC(=O)c1cc(NS(C)(=O)=O)ccc1/C=C/c1cc(-c2ccc(C)[nH]c2=O)cc(C(C)(C)C)c1OC` [I-201, 2-{(E)-2-[3-tert-Butyl-2-methoxy-5-(6-methyl-2-oxo-1,2-dihydro-pyridin-3-yl)-phenyl]-vinyl}-5-methanesulfonylamino-benzoic acid methyl ester] the value was 1 nM; for `COc1c(/C=C/c2ccc(NS(C)(=O)=O)cc2C(C)(C)O)cc(-c2ccc[nH]c2=O)cc1C(C)(C)C` [I-204, N-[4-{(E)-2-[3-tert-Butyl-2-methoxy-5-(2-oxo-1,2-dihydro-pyridin-3-yl)-phenyl]-vinyl}-3-(1-hydroxy-1-methyl-ethyl)-phenyl]-methanesulfonamide], 1 nM; for `COCc1cc(NS(C)(=O)=O)ccc1/C=C/c1cc(-c2ccc[nH]c2=O)cc(C(C)(C)C)c1OC` [I-206, N-(4-{E-2-[3-tert-Butyl-2-methoxy-5-(2-oxo-1,2-dihydro-pyridin-3-yl)-phenyl]-vinyl}-3-methoxymethyl-phenyl)-methanesulfonamide], 2 nM.
`COc1c(/C=C/c2ccc(NS(C)(=O)=O)cc2C(=O)N(C)CCN(C)C)cc(-c2cc(F)c[nH]c2=O)cc1C(C)(C)C` [I-207] displayed an IC50 of 4 nM.
In the case of `COCc1cc(NS(C)(=O)=O)ccc1/C=C/c1cc(-c2ccc(C)[nH]c2=O)cc(C(C)(C)C)c1OC` [I-208, N-(4-{(E)-2-[3-tert-Butyl-2-methoxy-5-(6-methyl-2-oxo-1,2-dihydro-pyridin-3-yl)-phenyl]-vinyl}-3-methoxymethyl-phenyl)-methanesulfonamide], it took 1 nM to reach half-maximal inhibition (IC50).
In the case of `COCc1cc(NS(C)(=O)=O)ccc1/C=C/c1cc(-c2ccc(OC)[nH]c2=O)cc(C(C)(C)C)c1OC` [I-209, N-(4-{(E)-2-[3-tert-Butyl-2-methoxy-5-(6-methoxy-2-oxo-1,2-dihydro-pyridin-3-yl)-phenyl]-vinyl}-3-methoxymethyl-phenyl)-methanesulfonamide], the midpoint of inhibition, the IC50, lay at 1 nM.
`COc1ccc(-c2cc(/C=C/c3ccc(NS(C)(=O)=O)cc3CO)c(OC)c(C(C)(C)C)c2)c(=O)[nH]1` [I-210, N-(4-{(E)-2-[3-tert-Butyl-2-methoxy-5-(6-methoxy-2-oxo-1,2-dihydro-pyridin-3-yl)-phenyl]-vinyl}-3-hydroxymethyl-phenyl)-methanesulfonamide] displayed an IC50 of 1 nM.
The molecule `COc1ccc(-c2cc(/C=C/c3ccc(NS(C)(=O)=O)cc3C(=O)O)c(OC)c(C(C)(C)C)c2)c(=O)[nH]1` [I-211, 2-{(E)-2-[3-tert-Butyl-2-methoxy-5-(6-methoxy-2-oxo-1,2-dihydro-pyridin-3-yl)-phenyl]-vinyl}-5-methanesulfonylamino-benzoic acid] returned an IC50 of 4 nM.
Same read-out and setting: for `COc1c(/C=C/c2ncc(NS(C)(=O)=O)cc2C)cc(-c2ccc[nH]c2=O)cc1C(C)(C)C` [I-213, N-(6-{(E)-2-[3-tert-Butyl-2-methoxy-5-(2-oxo-1,2-dihydro-pyridin-3-yl)-phenyl]-vinyl}-5-methyl-pyridin-3-yl)-methanesulfonamide] the value was 3 nM; for `CC(C)(C)c1cc(CCc2ccc(NS(C)(=O)=O)cn2)c(O)c(-c2ccc[nH]c2=O)c1` [I-214, N-(6-{2-[5-tert-butyl-2-hydroxy-3-(2-oxo-1,2-dihydro-pyridin-3-yl)-phenyl]-ethyl}-pyridin-3-yl)-methanesulfonamide], 2 nM; for `COc1c(/C=C/c2ccc(NS(C)(=O)=O)cc2COCCC(C)(C)O)cc(-c2cc(F)c[nH]c2=O)cc1C(C)(C)C` [I-219, N-[4-{(E)-2-[3-tert-Butyl-5-(5-fluoro-2-oxo-1,2-dihydro-pyridin-3-yl)-2-methoxy-phenyl]-vinyl}-3-(3-hydroxy-3-methyl-butoxymethyl)-phenyl]-methanesulfonamide], 4 nM.
The same measure, in the same setting: for `COc1c(/C=C/c2ccc(NS(C)(=O)=O)cc2CN2CCOC2=O)cc(-c2cc(F)c[nH]c2=O)cc1C(C)(C)C` [I-220, N-[4-{(E)-2-[3-tert-Butyl-5-(5-fluoro-2-oxo-1,2-dihydro-pyridin-3-yl)-2-methoxy-phenyl]-vinyl}-3-(2-oxo-oxazolidin-3-ylmethyl)-phenyl]-methanesulfonamide] the value was 5 nM.
Take `COc1c(/C=C/c2ccc(NS(C)(=O)=O)cc2CN(C)C)cc(-c2cc(F)c[nH]c2=O)cc1C(C)(C)C` [I-221, N-(4-{(E)-2-[3-tert-Butyl-5-(5-fluoro-2-oxo-1,2-dihydro-pyridin-3-yl)-2-methoxy-phenyl]-vinyl}-3-dimethylaminomethyl-phenyl)-methanesulfonamide]: the IC50 amounted to 11 nM.
Molecule `COc1c(/C=C/c2ccc(NS(C)(=O)=O)cc2CN2CCOCC2)cc(-c2cc(F)c[nH]c2=O)cc1C(C)(C)C` [I-222, N-(4-{(E)-2-[3-tert-Butyl-5-(5-fluoro-2-oxo-1,2-dihydro-pyridin-3-yl)-2-methoxy-phenyl]-vinyl}-3-morpholin-4-ylmethyl-phenyl)-methanesulfonamide] returned an IC50 of 1 nM.
The same measure, in the same setting: the figure for `COc1c(/C=C/c2ccc(NS(C)(=O)=O)cc2)cc(-c2ccc(C(C)O)[nH]c2=O)cc1C(C)(C)C` (stereo not drawn) [I-223, N-[4-((E)-2-{3-tert-Butyl-5-[6-(1-hydroxy-ethyl)-2-oxo-1,2-dihydro-pyridin-3-yl]-2-methoxy-phenyl}-vinyl)-phenyl]-methanesulfonamide] is 1 nM; for `COc1c(/C=C/c2ccc(NS(C)(=O)=O)cc2)cc(-c2ccc(CC#N)[nH]c2=O)cc1C(C)(C)C` [I-224, N-(4-{(E)-2-[3-tert-Butyl-5-(6-cyanomethyl-2-oxo-1,2-dihydro-pyridin-3-yl)-2-methoxy-phenyl]-vinyl}-phenyl)-methanesulfonamide] it is 4 nM; for `COc1c(/C=C/c2ccc(NS(C)(=O)=O)cc2)cc(-c2ccc(COCCO)[nH]c2=O)cc1C(C)(C)C` [I-225, N-[4-((E)-2-{3-tert-Butyl-5-[6-(2-hydroxy-ethoxymethyl)-2-oxo-1,2-dihydro-pyridin-3-yl]-2-methoxy-phenyl}-vinyl)-phenyl]-methanesulfonamide] it is 6 nM.
On the same count and under the same terms, for `COCCc1cc(NS(C)(=O)=O)ccc1/C=C/c1cc(-c2cc(F)c[nH]c2=O)cc(C(C)(C)C)c1OC` [I-227, N-[4-{(E)-2-[3-tert-Butyl-5-(5-fluoro-2-oxo-1,2-dihydro-pyridin-3-yl)-2-methoxy-phenyl]-vinyl}-3-(2-methoxy-ethyl)-phenyl]-methanesulfonamide] the value was 1 nM.

The assay is the same for the next values; noted with them: IC50 HCV NS5B RNA Polymerase Assay, values without asterisk; 20 nM NS5B570n-Con1 enzyme, 20 nM cIRES RNA template.
`COc1c(/C=C/c2ccc(N)nn2)cc(-c2ccc[nH]c2=O)cc1C(C)(C)C` [I-181] came in with an IC50 of 8 nM.
`COc1c(C(=O)Nc2cccc(O)c2C)cc(-c2ccc[nH]c2=O)cc1C(C)(C)C` [I-185] yielded an IC50 of 854 nM.
Same read-out and setting: for `COc1c(CC(CN(C)C)c2ccc(NS(C)(=O)=O)cc2)cc(-c2ccc[nH]c2=O)cc1C(C)(C)C` (stereo not drawn) [I-192, N-(4-{2-[3-tert-Butyl-2-methoxy-5-(2-oxo-1,2-dihydro-pyridin-3-yl)-phenyl]-1-dimethylaminomethyl-ethyl}-phenyl)-methanesulfonamide] the value was 28 nM.
The molecule `COc1c(CC(C)(CO)c2ccc(NS(C)(=O)=O)cc2)cc(-c2ccc[nH]c2=O)cc1C(C)(C)C` (stereo not drawn) [I-198, N-(4-{2-[3-tert-Butyl-2-methoxy-5-(2-oxo-1,2-dihydro-pyridin-3-yl)-phenyl]-1-hydroxymethyl-1-methyl-ethyl}-phenyl)-methanesulfonamide] registered an IC50 of 19 nM.
`CC(C)(C)c1cc(CCc2ccc(NS(C)(=O)=O)nc2)c(C#N)c(-c2ccc[nH]c2=O)c1` [I-212, N-(5-{2-[5-tert-Butyl-2-cyano-3-(2-oxo-1,2-dihydro-pyridin-3-yl)-phenyl]-ethyl}-pyridin-2-yl)-methanesulfonamide] displayed an IC50 of 9 nM.
As to `CC(C)(C)c1cc(CCc2ccc(NS(C)(=O)=O)cn2)c(O)c(-c2ccc[nH]c2=O)c1` [I-214, N-(6-{2-[5-tert-butyl-2-hydroxy-3-(2-oxo-1,2-dihydro-pyridin-3-yl)-phenyl]-ethyl}-pyridin-3-yl)-methanesulfonamide], the IC50 stood at 5 nM.
Molecule `CC(C)(C)c1cc(CCc2ccc(NS(C)(=O)=O)cc2C#N)c(O)c(-c2ccc[nH]c2=O)c1` [I-216, N-(4-{2-[5-tert-Butyl-2-hydroxy-3-(2-oxo-1,2-dihydro-pyridin-3-yl)-phenyl]ethyl}-3-cyano-phenyl)-methanesulfonamide] came in with an IC50 of 5 nM.
In turn, `CC(C)(C)c1cc(C#Cc2ccc(NS(C)(=O)=O)cc2F)c(O)c(-c2ccc[nH]c2=O)c1` [I-217, N-{4-[5-tert-Butyl-2-hydroxy-3-(2-oxo-1,2-dihydro-pyridin-3-yl)-phenylethynyl]-3-fluoro-phenyl}-methanesulfonamide] yielded an IC50 of 69 nM.
Molecule `COc1c(C(C)(C)C)cc(-c2ccc[nH]c2=O)c(O)c1CCc1ccc(NS(C)(=O)=O)cc1` [I-218, N-(4-{2-[3-tert-Butyl-6-hydroxy-2-methoxy-5-(2-oxo-1,2-dihydro-pyridin-3-yl)-phenyl]-ethyl}-phenyl)-methanesulfonamide] yielded an IC50 of 8 nM.

The same assay, now with this note: read-out: IC50 HCV NS5B RNA Polymerase Assay; values without asterisk; 20 nM NS5B570n-Con1 enzyme, 20 nM cIRES RNA template.
In the case of `COc1c(/C=C/c2ccc(NS(C)(=O)=O)nn2)cc(-c2ccc[nH]c2=O)cc1C(C)(C)C` [I-182], the IC50 is 9 nM.
On to `COc1c(/C=C/c2ccc(N)nn2)cc(-c2cc(F)c[nH]c2=O)cc1C(C)(C)C` [I-183], for which the IC50 worked out at 7 nM.
On the same count and under the same terms, for `COc1c(/C=C/c2ccc(NS(C)(=O)=O)nn2)cc(-c2cc(F)c[nH]c2=O)cc1C(C)(C)C` [I-184] the value was 4 nM.
